Molecular target: T1, BTK (Homo sapiens, UniProt Q06187)
T1 construct: endogenous in cells; host or cells: TMD-8 cells
Assay: BTK degradation in TMD-8 cells, HTRF assay after 6 h treatment
Type: cell-based
Settings: for DC50: IC50 (DC50) of BTK degradation; for Dmax: TMD8, maximum percentage of inhibition (degradation)
Procedure: TMD-8 cells are treated with compounds diluted in 0.2% DMSO, dilution is done according to the following protocol: (1) make 500× stock solution in DMSO from 1 mM by 6-fold dilution, total 8 doses were included; (2) make 2× solution in cell culture medium by transferring 0.5 μl 500× stock solution into 125 μl medium; (3) 15 μl of 2× solution is added to cells and incubate for 6 h.
After 6 h treatment, add 10 μl 4×lysis buffer to each well; seal the plate and incubate 30 min at room temperature on a plate shaker; Once the cells are lysed, 16 μL of cell lysate are transferred to a PE 384-well HTRF detection plate; 4 μL of pre-mixed HTRF antibodies are added to each well; Cover the plate with a plate sealer, spin 1000 rpm for 1 min, Incubate overnight at room temperature; Read on BMG PheraStar with HTRF protocol (337 nm-665 nm-620 nm).
The IC50 (DC50) value of a compound can be obtained by fitting the following equation
Y=Bottom+(TOP−Bottom)/(1+((IC50/X)^hillslope))
Wherein, X and Y are known values, and IC50, Hillslope, Top and Bottom are the parameters obtained by fitting with software. Y is the inhibition percentage (calculated from the equation), X is the concentration of the compound; IC50 is the concentration of the compound when the 50% inhibition is reached. The smaller the IC50 value is, the stronger the inhibitory ability of the compound is. Vice versa, the higher the IC50 value is, the weaker the ability the inhibitory ability of the compound is; Hillslope represents the slope of the fitted curve, generally around 1*; Bottom represents the minimum value of the curve obtained by data fitting, which is generally 0%±20%; Top represents the maximum value of the curve obtained by data fitting, which is generally 100%±20%. The experimental data were fitted by calculating and analyzing with Dotmatics data analysis software.

T1 sequence (Q06187 whole entry): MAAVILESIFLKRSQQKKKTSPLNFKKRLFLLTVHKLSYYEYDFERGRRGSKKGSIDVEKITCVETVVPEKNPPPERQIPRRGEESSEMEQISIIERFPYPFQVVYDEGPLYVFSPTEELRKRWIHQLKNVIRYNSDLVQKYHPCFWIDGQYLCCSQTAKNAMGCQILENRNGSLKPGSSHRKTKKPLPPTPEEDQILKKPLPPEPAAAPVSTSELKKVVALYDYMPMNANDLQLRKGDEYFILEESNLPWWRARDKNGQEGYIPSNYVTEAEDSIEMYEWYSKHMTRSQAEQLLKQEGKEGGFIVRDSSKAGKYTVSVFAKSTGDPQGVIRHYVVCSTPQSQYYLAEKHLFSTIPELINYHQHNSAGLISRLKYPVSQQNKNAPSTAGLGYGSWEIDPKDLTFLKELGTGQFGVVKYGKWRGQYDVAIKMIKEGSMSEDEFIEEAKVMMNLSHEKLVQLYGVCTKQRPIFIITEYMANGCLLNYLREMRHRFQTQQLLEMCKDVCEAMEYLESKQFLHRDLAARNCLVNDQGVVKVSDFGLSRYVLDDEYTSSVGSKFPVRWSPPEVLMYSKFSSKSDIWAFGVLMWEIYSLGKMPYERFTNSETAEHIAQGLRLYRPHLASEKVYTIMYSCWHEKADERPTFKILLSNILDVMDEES

Structure (SMILES) | DC50 [nM] | Dmax [%]
Cc1cc(-c2n[nH]c3ncc(-c4ccc(N5CCN(CCc6ccc(N7CCC(=O)NC7=O)cc6)CC5)cc4)cc23)ccc1[C@@H](C)NC(=O)c1noc(C(C)(C)C)n1 [Example 129, (R)-5-(tert-butyl)-N-(1-(4-(5-(4-(4-(4-(2,4-dioxotetrahydropyrimidin-1(2H)-yl)phenethyl)piperazin-1-yl)phenyl)-1H-pyrazolo[3,4-b]pyridin-3-yl)-2-methylphenyl)ethyl)-1,2,4-oxadiazole-3-carboxamide] | 3.73 | 
Cc1cc(-c2n[nH]c3ncc(-c4ccc(C5CCN(CCC6CCN(c7ccc(N8CCC(=O)NC8=O)c(Cl)c7)CC6)CC5)cc4)cc23)ccc1CNC(=O)c1nc(C(C)(C)C)no1 [Example 23, 3-(tert-butyl)-N-(4-(5-(4-(1-(2-(1-(3-chloro-4-(2,4-dioxotetrahydropyrimidin-1(2H)-yl)phenyl)piperidin-4-yl)ethyl)piperidin-4-yl)phenyl)-1H-pyrazolo[3,4-b]pyridin-3-yl)-2-methylbenzyl)-1,2,4-oxadiazole-5-carboxamide] | 4.04 | 96
Cc1cc(-c2n[nH]c3ncc(-c4ccc(N5CCC(COc6ccc(C7CCC(=O)NC7=O)cc6)CC5)cc4)cc23)ccc1[C@@H](C)NC(=O)c1noc(C(C)(C)C)n1 (stereo partly drawn) [Example 183, 5-(tert-butyl)-N-((1R)-1-(4-(5-(4-(4-((4-(2,6-dioxopiperidin-3-yl)phenoxy)methyl)piperidin-1-yl)phenyl)-1H-pyrazolo[3,4-b]pyridin-3-yl)-2-methylphenyl)ethyl)-1,2,4-oxadiazole-3-carboxamide] | 19.8 | 
Cc1cc(-c2n[nH]c3ncc(-c4ccc(N5CCN(CCc6ccc(C7CCC(=O)NC7=O)cc6)CC5)cc4)cc23)ccc1[C@@H](C)NC(=O)c1noc(C(C)(C)C)n1 (stereo partly drawn) [Example 35, 5-(tert-butyl)-N-((1R)-1-(4-(5-(4-(4-(4-(2,6-dioxopiperidin-3-yl)phenethyl)piperazin-1-yl)phenyl)-1H-pyrazolo[3,4-b]pyridin-3-yl)-2-methylphenyl)ethyl)-1,2,4-oxadiazole-3-carboxamide] | 1.9 | 93
CC(C)(C)c1noc(C(=O)NCc2ccc(-c3n[nH]c4ncc(-c5ccc(N6CCN(CCC7CCN(c8ccc(N9CCC(=O)NC9=O)c(F)c8)CC7)CC6)cc5)cc34)cc2F)n1 [Example 17, 3-(tert-butyl)-N-(4-(5-(4-(4-(2-(1-(4-(2,4-dioxotetrahydropyrimidin-1(2H)-yl)-3-fluorophenyl)piperidin-4-yl)ethyl)piperazin-1-yl)phenyl)-1H-pyrazolo[3,4-b]pyridin-3-yl)-2-fluorobenzyl)-1,2,4-oxadiazole-5-carboxamide] | 5.9 | 96.4
Cc1cc(-c2n[nH]c3ncc(-c4ccc(C5CCN(C6CC(c7ccc(C8CCC(=O)NC8=O)cc7)C6)CC5)nc4)cc23)ccc1[C@@H](C)NC(=O)c1noc(C(C)(C)C)n1 (stereo partly drawn) [Example 197, 5-(tert-butyl)-N-((1R)-1-(4-(5-(6-(1-(3-(4-(2,6-dioxopiperidin-3-yl)phenyl)cyclobutyl)piperidin-4-yl)pyridin-3-yl)-1H-pyrazolo[3,4-b]pyridin-3-yl)-2-methylphenyl)ethyl)-1,2,4-oxadiazole-3-carboxamide] | 1.08 | 
Cc1cc(-c2n[nH]c3ncc(-c4ccc(N5CCN(CCC6CCN(c7ccc(C8CCC(=O)NC8=O)c(C)n7)CC6)CC5)cc4)cc23)ccc1[C@@H](C)NC(=O)c1noc(C(C)(C)C)n1 (stereo partly drawn) [Example 136, 5-(tert-butyl)-N-((1R)-1-(4-(5-(4-(4-(2-(1-(5-(2,6-dioxopiperidin-3-yl)-6-methylpyridin-2-yl)piperidin-4-yl)ethyl)piperazin-1-yl)phenyl)-1H-pyrazolo[3,4-b]pyridin-3-yl)-2-methylphenyl)ethyl)-1,2,4-oxadiazole-3-carboxamide] | 14.9 | 
Cc1cc(CCN2CCN(c3ccc(-c4cnc5[nH]nc(-c6ccc([C@@H](C)NC(=O)c7noc(C(C)(C)C)n7)c(C)c6)c5c4)nc3)CC2)ncc1C1CCC(=O)NC1=O (stereo partly drawn) [Example 147, 5-(tert-butyl)-N-((1R)-1-(4-(5-(5-(4-(2-(5-(2,6-dioxopiperidin-3-yl)-4-methylpyridin-2-yl)ethyl)piperazin-1-yl)pyridin-2-yl)-1H-pyrazolo[3,4-b]pyridin-3-yl)-2-methylphenyl)ethyl)-1,2,4-oxadiazole-3-carboxamide] | 2.11 | 
Cc1nc(CCN2CCN(c3ccc(-c4cnc5[nH]nc(-c6ccc([C@@H](C)NC(=O)c7noc(C(C)(C)C)n7)c(C)c6F)c5c4)cc3)CC2)ccc1C1CCC(=O)NC1=O (stereo partly drawn) [Example 166, 5-(tert-butyl)-N-((1R)-1-(4-(5-(4-(4-(2-(5-(2,6-dioxopiperidin-3-yl)-6-methylpyridin-2-yl)ethyl)piperazin-1-yl)phenyl)-1H-pyrazolo[3,4-b]pyridin-3-yl)-3-fluoro-2-methylphenyl)ethyl)-1,2,4-oxadiazole-3-carboxamide] | 3.07 | 
Cc1cc(-c2n[nH]c3ncc(-c4ccc(N5CCN(CCc6ccc(C7CCC(=O)NC7=O)c(F)c6)CC5)cc4)cc23)ccc1[C@@H](C)NC(=O)c1nc(C(C)(C)C)no1 (stereo partly drawn) [Example 34, 3-(tert-butyl)-N-((1R)-1-(4-(5-(4-(4-(4-(2,6-dioxopiperidin-3-yl)-3-fluorophenethyl)piperazin-1-yl)phenyl)-1H-pyrazolo[3,4-b]pyridin-3-yl)-2-methylphenyl)ethyl)-1,2,4-oxadiazole-5-carboxamide] | 3.39 | 95.6
Cc1cc(-c2n[nH]c3ncc(-c4ccc(N5CCC(COc6ccc(OC7CCC(=O)NC7=O)cc6)CC5)cc4)cc23)ccc1[C@@H](C)NC(=O)c1noc(C(C)(C)C)n1 (stereo partly drawn) [Example 198, 5-(tert-butyl)-N-((1R)-1-(4-(5-(4-(4-((4-((2,6-dioxopiperidin-3-yl)oxy)phenoxy)methyl)piperidin-1-yl)phenyl)-1H-pyrazolo[3,4-b]pyridin-3-yl)-2-methylphenyl)ethyl)-1,2,4-oxadiazole-3-carboxamide] | 91.4 | 
Cc1cc(-c2n[nH]c3ncc(-c4ccc(C5(F)CCN(CC6CCN(c7ccc(N8CCC(=O)NC8=O)cc7)CC6)CC5)cc4)cc23)ccc1[C@@H](C)NC(=O)c1nc(C(C)(C)C)no1 [Example 203, (R)-3-(tert-butyl)-N-(1-(4-(5-(4-(1-((1-(4-(2,4-dioxotetrahydropyrimidin-1(2H)-yl)phenyl)piperidin-4-yl)methyl)-4-fluoropiperidin-4-yl)phenyl)-1H-pyrazolo[3,4-b]pyridin-3-yl)-2-methylphenyl)ethyl)-1,2,4-oxadiazole-5-carboxamide] | 5.27 | 
Cc1cc(-c2n[nH]c3ncc(-c4ccc(C5CCN(CCc6ccc(C7CCC(=O)NC7=O)cc6)CC5)nc4)cc23)ccc1[C@@H](C)NC(=O)c1noc(C(C)(C)C)n1 (stereo partly drawn) [Example 117, 5-(tert-butyl)-N-((1R)-1-(4-(5-(6-(1-(4-(2,6-dioxopiperidin-3-yl)phenethyl)piperidin-4-yl)pyridin-3-yl)-1H-pyrazolo[3,4-b]pyridin-3-yl)-2-methylphenyl)ethyl)-1,2,4-oxadiazole-3-carboxamide] | 3.5 | 
Cc1cc(-c2n[nH]c3ncc(-c4ccc(N5CCN(CCc6ccc(C7CCC(=O)NC7=O)cc6)CC5)cn4)cc23)ccc1CNC(=O)c1noc(C(C)(C)C)n1 (stereo not drawn) [Example 103, 5-(tert-butyl)-N-(4-(5-(5-(4-(4-(2,6-dioxopiperidin-3-yl)phenethyl)piperazin-1-yl)pyridin-2-yl)-1H-pyrazolo[3,4-b]pyridin-3-yl)-2-methylbenzyl)-1,2,4-oxadiazole-3-carboxamide] | 1.31 | 
Cc1nc(CCN2CCN(c3ccc(-c4cnc5[nH]nc(-c6ccc([C@@H](C)NC(=O)c7nc(C(C)(C)C)no7)c(CO)c6)c5c4)cc3)CC2)ccc1C1CCC(=O)NC1=O (stereo partly drawn) [Example 177, 3-(tert-butyl)-N-((1R)-1-(4-(5-(4-(4-(2-(5-(2,6-dioxopiperidin-3-yl)-6-methylpyridin-2-yl)ethyl)piperazin-1-yl)phenyl)-1H-pyrazolo[3,4-b]pyridin-3-yl)-2-(hydroxymethyl)phenyl)ethyl)-1,2,4-oxadiazole-5-carboxamide] | 3.47 | 
Cc1cc(-c2n[nH]c3ncc(-c4ccc(N5CCN(CC6CCN(c7ccc(N8CCC(=O)NC8=O)cc7)CC6)CC5)cc4)cc23)ccc1CNC(=O)c1noc(C(C)(C)C)n1 [Example 22, 5-(tert-butyl)-N-(4-(5-(4-(4-((1-(4-(2,4-dioxotetrahydropyrimidin-1(2H)-yl)phenyl)piperidin-4-yl)methyl)piperazin-1-yl)phenyl)-1H-pyrazolo[3,4-b]pyridin-3-yl)-2-methylbenzyl)-1,2,4-oxadiazole-3-carboxamide] | 9.1 | 97.6
